From patent US12692238B2, “Substituted pyridazinone herbicides” (FMC CORPORATION, priority 2020, dated 2026)

How the values were obtained:
Assay type in all cases: in vivo
[1] = tested on: blackgrass (Alopecurus myosuroides); experiment: Test A postemergence, blackgrass; conditions: 10 days
Method in brief: (§1)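 Test chemicals, formulated in a non-phytotoxic solvent mixture with surfactant, are applied either as a directed preemergence soil spray or postemergence to seedlings at the one- to two-leaf stage. Injury is scored visually after 10 days, 0 = no effect to 100 = complete control.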

kochia (Bassia scoparia) [2] = experiment: Test A preemergence, kochia; conditions: 0 to 100 scale, 10 days
Method in brief: as §1

[3] = tested on: goosegrass (Eleusine indica); experiment: Test A postemergence, goosegrass; conditions: 10 days
Source text: (§2) Seeds of plant species selected from barnyardgrass (Echinochloa crus-galli), blackgrass (Alopecurus myosuroides), corn (Zea mays), foxtail, giant (giant foxtail, Setaria faberi), foxtail, green (green foxtail, Setaria viridis), goosegrass (Eleusine indica), kochia (Bassia scoparia), oat, wild (wild oat, Avena fatua), palmer amaranth (pigweed, palmer, Amaranthus palmeri), redroot pigweed (Amaranthus retroflexus), ragweed (common ragweed, Ambrosia artemisiifolia), ryegrass, Italian (Italian ryegrass, Lolium multiflorum), and soybean (Glycine max) were planted into a blend of loam soil and sand and treated preemergence with a directed soil spray using test chemicals formulated in a non-phytotoxic solvent mixture which included a surfactant.
(§3) At the same time, plants selected from these crop and weed species and also wheat (Triticum aestivum), galium (catchweed bedstraw, Galium aparine) and horseweed (Erigeron canadensis) were planted in pots containing the same blend of loam soil and sand and treated with postemergence applications of test chemicals formulated in the same manner. Plants ranged in height from 2 to 10 cm and were in the one- to two-leaf stage for the postemergence treatment. Treated plants and untreated controls were maintained in a greenhouse for 10 days, after which time all treated plants were compared to untreated controls and visually evaluated for injury. Plant response ratings, summarized in Table A, are based on a 0 to 100 scale where 0 is no effect and 100 is complete control. A dash (-) response means no test result.

[4] = tested on: oat, wild (wild oat, Avena fatua); experiment: Test A postemergence, oat, wild; conditions: 10 days
Source text: as §2, §3

soybean (Glycine max) [5] = experiment: Test A preemergence, soybean; conditions: 0 to 100 scale, 10 days
Source text: as §2, §3

[6] = tested on: foxtail, giant (giant foxtail, Setaria faberi); experiment: Test A postemergence, foxtail, giant; conditions: 10 days
Source text: as §2, §3

soybean (Glycine max) [7] = experiment: Test A postemergence, soybean; conditions: 10 days
Source text: as §2, §3

[8] = tested on: oat, wild (wild oat, Avena fatua); experiment: Test A preemergence, oat, wild; conditions: 0 to 100 scale, 10 days
Source text: as §2, §3

[9] = tested on: ryegrass, Italian (Italian ryegrass, Lolium multiflorum); experiment: Test A postemergence, ryegrass, Italian; conditions: 10 days
Method in brief: as §1

[10] = tested on: ryegrass, Italian (Italian ryegrass, Lolium multiflorum); experiment: Test A preemergence, ryegrass, Italian; conditions: 0 to 100 scale, 10 days
Method in brief: as §1

[11] = tested on: foxtail, giant (giant foxtail, Setaria faberi); experiment: Test A preemergence, foxtail, giant; conditions: 0 to 100 scale, 10 days
Source text: as §2, §3

[12] = tested on: ducksalad (Heteranthera limosa); experiment: Test B flooded paddy test, ducksalad; conditions: 250 g ai/ha, Flood; visually evaluated after 10 to 14 days
Method in brief: (§4)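 Compound is introduced straight into paddy water on flooded pots (3 cm) containing 2-leaf-stage plants. Controls are run alongside, and all plants are rated by eye on a 0–100 scale after 10 to 14 days under glass.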

rice (Oryza sativa) = experiment: Test B flooded paddy test, rice; conditions: 250 g ai/ha, Flood; visually evaluated after 10 to 14 days
Method in brief: as §4

[13] = tested on: sedge, umbrella (small-flower umbrella sedge, Cyperus difformis); experiment: Test B flooded paddy test, sedge, umbrella; conditions: 250 g ai/ha, Flood; visually evaluated after 10 to 14 days
Method in brief: as §4

[14] = tested on: ragweed (common ragweed, Ambrosia artemisiifolia); experiment: Test A preemergence, ragweed; conditions: 0 to 100 scale, 10 days
Method in brief: as §1

[15] = tested on: wheat (Triticum aestivum); experiment: Test A postemergence, wheat; conditions: 10 days
Method in brief: as §1

[16] = tested on: barnyardgrass (Echinochloa crus-galli); experiment: Test B flooded paddy test, barnyardgrass; conditions: 250 g ai/ha, Flood; visually evaluated after 10 to 14 days
Method in brief: as §4

[17] = tested on: palmer amaranth (pigweed, palmer, Amaranthus palmeri); experiment: Test A postemergence, palmer amaranth; conditions: 10 days
Source text: as §2, §3

[18] = tested on: ragweed (common ragweed, Ambrosia artemisiifolia); experiment: Test A postemergence, ragweed; conditions: 10 days
Method in brief: as §1

[19] = tested on: galium (catchweed bedstraw, Galium aparine); experiment: Test A postemergence, galium; conditions: 10 days
Method in brief: as §1

[20] = tested on: horseweed (Erigeron canadensis); experiment: Test A postemergence, horseweed; conditions: 10 days
Source text: as §2, §3

corn (Zea mays) [21] = experiment: Test A postemergence, corn; conditions: 10 days
Method in brief: as §1

[22] = tested on: wheat (Triticum aestivum); experiment: Test A preemergence, wheat; conditions: 125 g ai/ha, 0 to 100 scale, 10 days
[23] = tested on: goosegrass (Eleusine indica); experiment: Test A preemergence, goosegrass; conditions: 0 to 100 scale, 10 days
Source text: as §2, §3

corn (Zea mays) [24] = experiment: Test A preemergence, corn; conditions: 0 to 100 scale, 10 days
Source text: as §2, §3

[25] = tested on: blackgrass (Alopecurus myosuroides); experiment: Test A preemergence, blackgrass; conditions: 0 to 100 scale, 10 days
Source text: as §2, §3

[26] = tested on: palmer amaranth (pigweed, palmer, Amaranthus palmeri); experiment: Test A preemergence, palmer amaranth; conditions: 0 to 100 scale, 10 days
Source text: as §2, §3

kochia (Bassia scoparia) [27] = experiment: Test A postemergence, kochia; conditions: 10 days
Method in brief: as §1

[28] = 31 g ai/ha, postemergence, 0 to 100 scale (0 no effect, 100 complete control)
[29] = Postemergence, 125 g ai/ha, 0 to 100 scale

Structure (SMILES): Cn1nc(Cl)c(OCOC(=O)C(C)(C)C)c(-c2c3ccccc3cc3ccccc23)c1=O [Compound 19]
- Plant response rating, Blackgrass [1, 28]: 0
- Plant response rating, Blackgrass [1, 29]: 0
- Plant response rating, Kochia (kochia (Bassia scoparia) [2]; 31 g ai/ha): 0
- Plant response rating, Kochia (kochia (Bassia scoparia) [2]; 125 g ai/ha): 80
- Plant response rating, Goosegrass [3, 28]: 10
- Plant response rating, Goosegrass [3, 29]: 10
- Plant response rating, Oat, Wild [4, 28]: 10
- Plant response rating, Oat, Wild [4, 29]: 10
- Plant response rating, Soybean (soybean (Glycine max) [5]; 31 g ai/ha): 0
- Plant response rating, Soybean (soybean (Glycine max) [5]; 125 g ai/ha): 0
- Plant response rating, Foxtail, Giant [6, 28]: 10
- Plant response rating, Foxtail, Giant [6, 29]: 50
- Plant response rating, Soybean (soybean (Glycine max) [7]; [28]): 0
- Plant response rating, Soybean (soybean (Glycine max) [7]; [29]): 30
- Plant response rating, Oat, Wild ([8]; 31 g ai/ha): 0
- Plant response rating, Oat, Wild ([8]; 125 g ai/ha): 0
- Plant response rating, Ryegrass, Italian [9, 28]: 0
- Plant response rating, Ryegrass, Italian [9, 29]: 10
- Plant response rating, Ryegrass, Italian ([10]; 31 g ai/ha): 0
- Plant response rating, Ryegrass, Italian ([10]; 125 g ai/ha): 80
- Plant response rating, Foxtail, Giant ([11]; 31 g ai/ha): 10
- Plant response rating, Foxtail, Giant ([11]; 125 g ai/ha): 70
- Plant response rating, Ducksalad (0 to 100 scale where 0 is no effect and 100 is complete control) [12]: 100
- Plant response rating, Rice (0 to 100 scale where 0 is no effect and 100 is complete control) (rice (Oryza sativa)): 0
- Plant response rating, Sedge, Umbrella (0 to 100 scale where 0 is no effect and 100 is complete control) [13]: 85
- Plant response rating, Ragweed ([14]; 31 g ai/ha): 80
- Plant response rating, Ragweed ([14]; 125 g ai/ha): 80
- Plant response rating, Wheat [15, 28]: 0
- Plant response rating, Wheat [15, 29]: 0
- Plant response rating, Barnyardgrass (0 to 100 scale where 0 is no effect and 100 is complete control) [16]: 35
- Plant response rating, Pigweed, Palmer [17, 28]: 100
- Plant response rating, Pigweed, Palmer [17, 29]: 100
- Plant response rating, Ragweed [18, 28]: 100
- Plant response rating, Ragweed [18, 29]: 100
- Plant response rating, Galium [19, 28]: 100
- Plant response rating, Galium [19, 29]: 100
- Plant response rating, Horseweed [20, 28]: 100
- Plant response rating, Horseweed [20, 29]: 90
- Plant response rating, Corn (corn (Zea mays) [21]; [28]): 10
- Plant response rating, Corn (corn (Zea mays) [21]; [29]): 20
- Plant response rating, Wheat [22]: 0
- Plant response rating, Goosegrass ([23]; 31 g ai/ha): 0
- Plant response rating, Goosegrass ([23]; 125 g ai/ha): 30
- Plant response rating, Corn (corn (Zea mays) [24]; 31 g ai/ha): 0
- Plant response rating, Corn (corn (Zea mays) [24]; 125 g ai/ha): 0
- Plant response rating, Blackgrass ([25]; 31 g ai/ha): 0
- Plant response rating, Blackgrass ([25]; 125 g ai/ha): 10
- Plant response rating, Pigweed, Palmer ([26]; 31 g ai/ha): 90
- Plant response rating, Pigweed, Palmer ([26]; 125 g ai/ha): 100
- Plant response rating, Kochia (kochia (Bassia scoparia) [27]; [28]): 40
- Plant response rating, Kochia (kochia (Bassia scoparia) [27]; [29]): 80
